Test results from US9999622B2, “Pyrazolothiazole compound and medicine comprising same” (NIPPON SHINYAKU CO., LTD., priority 2014, dated 2018).

How the values were obtained:
Assay type in all cases: biochemical
JAK1 = target: T1, JAK1 (Homo sapiens, UniProt P23458); assay: JAK tyrosine kinase inhibitory activity in the presence of 1 mM ATP (ELISA), JAK1
T1 construct: purchased Carna Biosciences, Inc
How it was run: (§1)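 ELISA read-out: HRP-labelled anti-phosphotyrosine antibody with TMB, absorbance 450 nm, after 1 h kinase reaction at 30 °C in presence of 1 mM ATP. Kinase diluted to 7.5 nM (JAK1) or 0.75 nM (JAK2/JAK3) in Tris-HCl pH 7.5 buffer with DTT; compounds tested in duplicate.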

JAK2 = target: T2, JAK2 (Homo sapiens, UniProt O60674); assay: JAK tyrosine kinase inhibitory activity in the presence of 1 mM ATP (ELISA), JAK2
T2 construct: purchased Carna Biosciences, Inc
How it was run: as §1

JAK3 = target: T3, JAK3 (Homo sapiens, UniProt P52333); assay: JAK tyrosine kinase inhibitory activity in the presence of 1 mM ATP (ELISA), JAK3
T3 construct: purchased Carna Biosciences, Inc
T3 sequence (P52333 1-1124): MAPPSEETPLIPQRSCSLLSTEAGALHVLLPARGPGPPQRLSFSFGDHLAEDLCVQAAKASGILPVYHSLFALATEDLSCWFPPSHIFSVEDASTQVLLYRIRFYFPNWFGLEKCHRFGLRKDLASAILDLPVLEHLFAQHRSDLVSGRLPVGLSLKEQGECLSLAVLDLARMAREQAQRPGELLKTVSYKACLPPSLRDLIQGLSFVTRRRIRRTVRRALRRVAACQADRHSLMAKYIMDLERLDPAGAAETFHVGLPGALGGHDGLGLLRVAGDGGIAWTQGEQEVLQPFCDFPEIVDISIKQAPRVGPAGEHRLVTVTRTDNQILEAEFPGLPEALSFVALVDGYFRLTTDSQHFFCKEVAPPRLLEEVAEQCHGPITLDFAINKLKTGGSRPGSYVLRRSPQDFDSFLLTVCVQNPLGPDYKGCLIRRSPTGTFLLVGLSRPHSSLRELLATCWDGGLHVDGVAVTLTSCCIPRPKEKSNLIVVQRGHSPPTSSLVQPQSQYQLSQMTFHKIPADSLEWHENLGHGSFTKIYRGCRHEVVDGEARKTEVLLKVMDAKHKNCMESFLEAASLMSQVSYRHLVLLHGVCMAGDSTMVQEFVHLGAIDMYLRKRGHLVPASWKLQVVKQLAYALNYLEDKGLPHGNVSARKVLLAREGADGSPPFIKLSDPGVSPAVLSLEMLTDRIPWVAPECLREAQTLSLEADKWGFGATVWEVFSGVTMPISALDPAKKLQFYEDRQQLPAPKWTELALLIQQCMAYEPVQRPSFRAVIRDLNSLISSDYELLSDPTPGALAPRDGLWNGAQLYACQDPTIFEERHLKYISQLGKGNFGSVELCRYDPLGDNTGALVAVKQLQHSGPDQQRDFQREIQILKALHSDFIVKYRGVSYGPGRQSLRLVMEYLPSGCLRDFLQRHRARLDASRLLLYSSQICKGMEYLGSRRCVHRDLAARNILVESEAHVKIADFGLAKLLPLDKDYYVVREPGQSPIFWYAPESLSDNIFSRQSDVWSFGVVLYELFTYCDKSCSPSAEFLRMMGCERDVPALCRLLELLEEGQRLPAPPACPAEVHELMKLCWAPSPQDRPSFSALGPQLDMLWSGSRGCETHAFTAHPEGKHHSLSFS
How it was run: as §1

T1 sequence (P23458 whole entry): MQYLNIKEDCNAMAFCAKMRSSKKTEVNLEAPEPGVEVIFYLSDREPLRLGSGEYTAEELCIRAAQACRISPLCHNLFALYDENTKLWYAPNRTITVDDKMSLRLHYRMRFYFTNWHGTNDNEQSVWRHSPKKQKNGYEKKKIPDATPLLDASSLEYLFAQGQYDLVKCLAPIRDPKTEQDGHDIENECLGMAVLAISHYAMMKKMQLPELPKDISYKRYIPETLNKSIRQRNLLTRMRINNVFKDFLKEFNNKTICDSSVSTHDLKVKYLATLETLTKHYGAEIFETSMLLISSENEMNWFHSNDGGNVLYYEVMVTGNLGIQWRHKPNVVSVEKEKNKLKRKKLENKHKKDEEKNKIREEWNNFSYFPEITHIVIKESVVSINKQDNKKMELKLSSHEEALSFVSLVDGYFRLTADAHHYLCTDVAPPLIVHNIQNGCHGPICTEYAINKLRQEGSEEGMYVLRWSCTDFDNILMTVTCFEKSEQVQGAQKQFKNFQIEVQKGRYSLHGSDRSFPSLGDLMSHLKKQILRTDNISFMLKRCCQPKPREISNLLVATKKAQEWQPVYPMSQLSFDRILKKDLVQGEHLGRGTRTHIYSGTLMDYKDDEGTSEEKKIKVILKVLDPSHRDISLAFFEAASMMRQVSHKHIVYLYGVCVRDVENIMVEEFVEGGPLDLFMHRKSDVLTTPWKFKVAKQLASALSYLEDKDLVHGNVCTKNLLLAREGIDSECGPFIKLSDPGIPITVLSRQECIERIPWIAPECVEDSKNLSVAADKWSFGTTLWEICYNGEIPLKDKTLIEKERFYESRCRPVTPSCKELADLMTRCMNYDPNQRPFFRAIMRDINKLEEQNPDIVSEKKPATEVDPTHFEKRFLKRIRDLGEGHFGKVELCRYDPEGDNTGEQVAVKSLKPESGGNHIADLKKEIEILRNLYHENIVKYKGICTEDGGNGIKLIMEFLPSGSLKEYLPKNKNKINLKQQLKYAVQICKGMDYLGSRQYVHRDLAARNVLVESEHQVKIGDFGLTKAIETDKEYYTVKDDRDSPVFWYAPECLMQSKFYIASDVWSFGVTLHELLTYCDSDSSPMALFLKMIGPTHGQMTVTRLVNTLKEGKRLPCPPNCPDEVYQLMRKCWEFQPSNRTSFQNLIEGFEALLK
T2 sequence (O60674 whole entry): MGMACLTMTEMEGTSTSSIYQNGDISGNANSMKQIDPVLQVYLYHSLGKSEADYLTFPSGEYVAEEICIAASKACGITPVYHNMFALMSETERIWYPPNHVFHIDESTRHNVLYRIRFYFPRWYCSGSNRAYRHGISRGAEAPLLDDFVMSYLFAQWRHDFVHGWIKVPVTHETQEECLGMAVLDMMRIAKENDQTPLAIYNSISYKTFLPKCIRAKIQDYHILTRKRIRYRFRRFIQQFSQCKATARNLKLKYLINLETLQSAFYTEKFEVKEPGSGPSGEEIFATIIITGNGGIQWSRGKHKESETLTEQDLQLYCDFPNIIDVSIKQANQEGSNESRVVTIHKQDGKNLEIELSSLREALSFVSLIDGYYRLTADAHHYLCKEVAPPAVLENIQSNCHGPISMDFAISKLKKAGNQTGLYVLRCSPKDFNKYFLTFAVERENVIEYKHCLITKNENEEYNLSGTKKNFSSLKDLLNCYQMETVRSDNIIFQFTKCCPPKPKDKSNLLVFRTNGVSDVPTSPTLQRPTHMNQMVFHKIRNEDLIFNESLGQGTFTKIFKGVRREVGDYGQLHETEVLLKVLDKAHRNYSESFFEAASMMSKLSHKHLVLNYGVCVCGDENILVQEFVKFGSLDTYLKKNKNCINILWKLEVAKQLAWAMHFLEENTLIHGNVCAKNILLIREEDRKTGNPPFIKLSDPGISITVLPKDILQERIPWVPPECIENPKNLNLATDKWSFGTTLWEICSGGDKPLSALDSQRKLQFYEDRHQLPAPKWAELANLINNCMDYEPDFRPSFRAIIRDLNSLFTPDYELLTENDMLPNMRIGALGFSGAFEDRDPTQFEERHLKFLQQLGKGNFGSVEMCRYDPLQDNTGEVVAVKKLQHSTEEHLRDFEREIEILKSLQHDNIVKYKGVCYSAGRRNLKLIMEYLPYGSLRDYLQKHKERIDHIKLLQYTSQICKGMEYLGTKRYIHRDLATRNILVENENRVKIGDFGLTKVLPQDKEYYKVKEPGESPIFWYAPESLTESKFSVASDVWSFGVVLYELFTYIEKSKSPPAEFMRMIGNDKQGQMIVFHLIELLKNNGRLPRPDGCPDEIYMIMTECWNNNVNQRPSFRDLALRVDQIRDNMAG

SMILES | IC50 (JAK1) | IC50 (JAK2) | IC50 (JAK3)
COC(=O)NC1CCN(C(=O)c2cc(N[C@H](C)c3ccc(F)cc3)nc(-c3cnn4ccsc34)n2)CC1 [Example 77, Methyl (1-{[6-{[(1R)-1-(4-fluorophenyl)ethyl]amino}-2-(pyrazolo[5,1-b][1,3]thiazol-7-yl)pyrimidin-4-yl]carbonyl}piperidin-4-yl)carbamate] | 980 nM | 3200 nM | > 10000 nM
O=C(NC1CCN(C(=O)c2cc(NCC3CNC3)nc(-c3cnn4ccsc34)n2)CC1)C1CC1 [Example 78, N-[1-({6-[(Azetidin-3-ylmethyl)amino]-2-(pyrazolo[5,1-b][1,3]thiazol-7-yl)pyrimidin-4-yl}carbonyl)piperidin-4-yl]cyclopropanecarboxamide] | 4100 nM | > 10000 nM | > 10000 nM
CC(C)C(=O)NC1CCN(C(=O)c2cc(N[C@H](C)c3ccc(F)cc3)nc(-c3cnn4ccsc34)n2)CC1 [Example 79, N-(1-{[6-{[(1R)-1-(4-Fluorophenyl)ethyl]amino}-2-(pyrazolo[5,1-b][1,3]thiazol-7-yl)pyrimidin-4-yl]carbonyl}piperidin-4-yl)-2-methylpropanamide] | 870 nM | 3300 nM | > 10000 nM
CCC(C)(C)Nc1cc(C(=O)N2CCC(NC(=O)OC)CC2)nc(-c2cnn3ccsc23)n1 [Example 80, Methyl [1-({6-[(2-methylbutan-2-yl)amino]-2-(pyrazolo[5,1-b][1,3]thiazol-7-yl)pyrimidin-4-yl}carbonyl)piperidin-4-yl]carbamate] | 110 nM | 820 nM | 2300 nM
CCCOC(=O)NC1CCN(C(=O)c2cc(NC(C)(C)C)nc(-c3cnn4ccsc34)n2)CC1 [Example 82, Propyl (1-{[6-(tert-butylamino)-2-(pyrazolo[5,1-b][1,3]thiazol-7-yl)pyrimidin-4-yl]carbonyl}piperidin-4-yl)carbamate] | 58 nM | 9700 nM | 5800 nM
CCCOC(=O)NC1CCN(C(=O)c2cc(N[C@H](C)C(C)(C)C)nc(-c3cnn4ccsc34)n2)CC1 [Example 85, Propyl (1-{[6-{[(2R)-3,3-dimethylbutan-2-yl]amino}-2-(pyrazolo[5,1-b][1,3]thiazol-7-yl)pyrimidin-4-yl]carbonyl}piperidin-4-yl)carbamate] | 330 nM | 2200 nM | 2300 nM
COCCOC(=O)NC1CCN(C(=O)c2cc(N[C@H](C)C3CC3)nc(-c3cnn4ccsc34)n2)CC1 [Example 88, 2-Methoxyethyl (1-{[6-{[(1R)-1-cyclopropylethyl]amino}-2-(pyrazolo[5,1-b][1,3]thiazol-7-yl)pyrimidin-4-yl]carbonyl}piperidin-4-yl)carbamate] | 190 nM | 1000 nM | 4100 nM
COCCOC(=O)NC1CCN(C(=O)c2cc(N[C@H](C)C(C)(C)C)nc(-c3cnn4ccsc34)n2)CC1 [Example 90, 2-Methoxyethyl (1-{[6-{[(2R)-3,3-dimethylbutan-2-yl]amino}-2-(pyrazolo[5,1-b][1,3]thiazol-7-yl)pyrimidin-4-yl]carbonyl}piperidin-4-yl)carbamate] | 620 nM | 1200 nM | 1800 nM
COCC(=O)NC1CCN(C(=O)c2cc(N[C@H](C)C(C)(C)C)nc(-c3cnn4ccsc34)n2)CC1 [Example 93, N-(1-{[6-{[(2R)-3,3-Dimethylbutan-2-yl]amino}-2-(pyrazolo[5,1-b][1,3]thiazol-7-yl)pyrimidin-4-yl]carbonyl}piperidin-4-yl)-2-methoxyacetamide] | 40 nM | 1200 nM | 1000 nM
CCC(CC)COc1cc(C(=O)N2CCC(NC(=O)C3CC3)CC2)nc(-c2cnn3ccsc23)n1 [Example 107, N-(1-{[6-(2-Ethylbutoxy)-2-(pyrazolo[5,1-b][1,3]thiazol-7-yl)pyrimidin-4-yl]carbonyl}piperidin-4-yl)cyclopropanecarboxamide] | 200 nM | 3500 nM | 1600 nM

The next lines start with the values.

IC50 (JAK1) | IC50 (JAK2) | IC50 (JAK3) | SMILES
1900 nM | 2200 nM | 5400 nM | CC(C)(C)CNc1cc(C(=O)N2CCC(O)CC2)nc(-c2cnn3ccsc23)n1 [Example 94, {6-[(2,2-Dimethylpropyl)amino]-2-(pyrazolo[5,1-b][1,3]thiazol-7-yl)pyrimidin-4-yl}(4-hydroxypiperidin-1-yl)methanone]
37 nM | 1400 nM | 1400 nM | C[C@H](Nc1cc(C(=O)N2CCC(NC(=O)OCC(F)F)CC2)nc(-c2cnn3ccsc23)n1)C1CC1 [Example 98, 2,2-Difluoroethyl (l-{[6-{[(1S)-1-cyclopropylethyl]amino}-2-(pyrazolo[5,1-b][1,3]thiazol-7-yl)pyrimidin-4-yl]carbonyl}piperidin-4-yl)carbamate]
19 nM | 790 nM | 2600 nM | C[C@H](Nc1cc(C(=O)N2CCC(NC(=O)OCC(F)F)CC2)nc(-c2cnn3ccsc23)n1)C(C)(C)C [Example 99, 2,2-Difluoroethyl (1-{[6 {[(2S) 3,3-dimethylbutan-2-yl]amino}-2-(pyrazolo[5,1-b][1,3]thiazol-7-yl)pyrimidin-4-yl]carbonyl}piperidin-4-yl)carbamate]
140 nM | 3000 nM | 3400 nM | C[C@@H](Nc1cc(C(=O)N2CCC(NC(=O)OC(C)(C)C)CC2)nc(-c2cnn3ccsc23)n1)C(C)(C)C [Example 100, tert-Butyl (1-{[6-{[(2R)-3,3-dimethylbutan-2-yl]amino}-2-(pyrazolo[5,1-b][1,3]thiazol-7-yl)pyrimidin-4-yl]carbonyl}piperidin-4-yl)carbamate]
98 nM | 1800 nM | 3100 nM | COCCOC(=O)NC1CCN(C(=O)c2cc(NC(C)(C)C)nc(-c3cnn4ccsc34)n2)CC1 [Example 101]
24 nM | 1300 nM | 1700 nM | C[C@@H](Nc1cc(C(=O)N2CCC(NC(=O)OCCN(C)C)CC2)nc(-c2cnn3ccsc23)n1)C(C)(C)C [Example 102, 2-(Dimethylamino)ethyl (1-{[6-{[(2R)-3,3-dimethylbutan-2-yl]amino}-2-(pyrazolo[5,1-b][1,3]thiazol-7-yl)pyrimidin-4-yl]carbonyl}piperidin-4-yl)carbamate]
140 nM | 2400 nM | 5900 nM | C[C@@H](Nc1cc(C(=O)N2CCC(NC(=O)OCC(F)(F)F)CC2)nc(-c2cnn3ccsc23)n1)C1CC1 [Example 103, 2,2,2-Trifluoroethyl (1-{[6-{[(1R)-1-cyclopropylethyl]amino}-2-(pyrazolo[5,1-b][1,3]thiazol 7-yl)pyrimidin-4-yl]carbonyl}piperidin-4-yl)carbamate]
200 nM | 3000 nM | 3400 nM | C[C@@H](Nc1cc(C(=O)N2CCC(NC(=O)OCC(F)(F)F)CC2)nc(-c2cnn3ccsc23)n1)C(C)(C)C [Example 104, 2,2,2-Trifluoroethyl (1-{[6-{[(2R)-3,3-dimethylbutan-2-yl]amino}-2-(pyrazolo[5,1-b][1,3]thiazol-7-yl)pyrimidin-4-yl]carbonyl}piperidin-4-yl)carbamate]
600 nM | 1300 nM | 2800 nM | CCC(CC)Nc1cc(C(=O)N2CCC(NC(=O)COC)CC2)nc(-c2cnn3ccsc23)n1 [Example 106, 2-Methoxy-N-(1-{[6-(pentan-3-ylamino)-2-(pyrazolo[5,1-b][1,3]thiazol-7-yl)pyrimidin-4-yl]carbonyl}piperidin-4-yl)acetamide]
